According to patent publication US20230141101A1, “PDE4 INHIBITOR COMPOUND AND MEDICAL USE THEREOF” (Suzhou Longbotai Pharmaceuticals Co., Ltd., priority 2020, published 2023):

Key:
Type in all cases: biochemical
Details in all cases: 20 nM
PDE4D2 = PDE4D2 (Homo sapiens, UniProt Q08499); assay: PDE4 inhibitory activity assay (FAM-cAMP enzymatic reaction), PDE4D2
Description: (§1) The compounds of the present disclosure were tested for their inhibitory activity (IC50 value) against PDE4A1A, PDE4B1, and PDE4D2.
(§2) Positive compound: Trequinsin (Sigma, Cat No. T20S7).
(§3) Instrument: Wallac Victor Muti-lable counter (Pekin Elmer) Steps of assay:
(§4) PDE enzymatic reaction; • 1) PDE was dissolved in 1× reaction solution to prepare 2× enzyme solution; • 2) FAM-cAMP was dissolved in 1× reaction solution to prepare 2× substrate solution; • 3) Corresponding volume of the compound in DMSO was transferred to the reaction plate through Echo 550; • 4) 2× enzyme solution was added into the corresponding wells of the reaction plate and incubated with the compound solution for 15 minutes at room temperature; • 5) 2× substrate solution was added into the corresponding well of the reaction plate to initiate the reaction; • 6) After the reaction plate was incubated at room temperature for 30 min, the reaction was terminated by adding reaction stopping solution. The reaction plate was incubated at room temperature for another 60 minutes;
(§5) Inhibition rates were calculated with Excel; and IC50 for each compound was calculated with Graphpad prism.

PDE4B1 = biological target: T1, PDE4B1 (Homo sapiens, UniProt Q07343); assay: PDE4 inhibitory activity assay (FAM-cAMP enzymatic reaction), PDE4B1
T1 construct: purchased BPS 60041
T1 sequence (Q07343 whole entry): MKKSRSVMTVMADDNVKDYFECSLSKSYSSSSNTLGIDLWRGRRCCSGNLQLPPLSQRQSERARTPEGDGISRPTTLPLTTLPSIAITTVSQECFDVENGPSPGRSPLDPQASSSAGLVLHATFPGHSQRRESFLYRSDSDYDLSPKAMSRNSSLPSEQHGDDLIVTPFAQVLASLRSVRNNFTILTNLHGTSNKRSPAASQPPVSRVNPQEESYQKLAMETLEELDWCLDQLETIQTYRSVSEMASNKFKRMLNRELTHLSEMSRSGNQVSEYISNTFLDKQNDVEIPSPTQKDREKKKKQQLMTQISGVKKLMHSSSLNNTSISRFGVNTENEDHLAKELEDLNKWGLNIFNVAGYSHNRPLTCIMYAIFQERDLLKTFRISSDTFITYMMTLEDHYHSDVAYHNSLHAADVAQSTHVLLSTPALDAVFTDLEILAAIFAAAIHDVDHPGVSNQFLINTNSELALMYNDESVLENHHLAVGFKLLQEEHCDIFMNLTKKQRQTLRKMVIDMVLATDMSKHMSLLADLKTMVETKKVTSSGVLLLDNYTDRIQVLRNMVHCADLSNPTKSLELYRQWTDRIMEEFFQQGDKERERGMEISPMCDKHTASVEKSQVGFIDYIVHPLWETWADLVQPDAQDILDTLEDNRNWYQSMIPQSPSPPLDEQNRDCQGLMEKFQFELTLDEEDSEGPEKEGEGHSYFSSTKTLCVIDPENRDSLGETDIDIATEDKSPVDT
Description: as §1, §2, §3, §4, §5

PDE4A1A = biological target: T2, PDE4A1A (Homo sapiens, UniProt P27815); assay: PDE4 inhibitory activity assay (FAM-cAMP enzymatic reaction), PDE4A1A
T2 construct: purchased BPS 60040
T2 sequence (P27815 1-647 isoform P27815-4): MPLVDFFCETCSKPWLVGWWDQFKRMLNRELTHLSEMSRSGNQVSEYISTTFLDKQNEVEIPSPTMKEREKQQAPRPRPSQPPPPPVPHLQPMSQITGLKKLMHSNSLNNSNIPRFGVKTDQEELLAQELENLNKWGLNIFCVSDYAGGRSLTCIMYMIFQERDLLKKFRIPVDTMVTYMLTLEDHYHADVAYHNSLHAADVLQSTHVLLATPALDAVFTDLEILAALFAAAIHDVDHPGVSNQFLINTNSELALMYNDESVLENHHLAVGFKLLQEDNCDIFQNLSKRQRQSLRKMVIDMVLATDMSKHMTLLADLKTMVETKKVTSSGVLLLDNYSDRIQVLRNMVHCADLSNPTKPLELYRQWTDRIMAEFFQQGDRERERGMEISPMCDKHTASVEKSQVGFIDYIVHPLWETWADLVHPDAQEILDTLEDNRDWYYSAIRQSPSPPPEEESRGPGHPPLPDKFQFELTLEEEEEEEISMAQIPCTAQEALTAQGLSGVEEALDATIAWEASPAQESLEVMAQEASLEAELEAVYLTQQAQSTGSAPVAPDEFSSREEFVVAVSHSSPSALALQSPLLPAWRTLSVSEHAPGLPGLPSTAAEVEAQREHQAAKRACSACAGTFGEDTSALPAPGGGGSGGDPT
Description: as §1, §2, §3, §4, §5

PDE4D2, sequence (Q08499 303-809): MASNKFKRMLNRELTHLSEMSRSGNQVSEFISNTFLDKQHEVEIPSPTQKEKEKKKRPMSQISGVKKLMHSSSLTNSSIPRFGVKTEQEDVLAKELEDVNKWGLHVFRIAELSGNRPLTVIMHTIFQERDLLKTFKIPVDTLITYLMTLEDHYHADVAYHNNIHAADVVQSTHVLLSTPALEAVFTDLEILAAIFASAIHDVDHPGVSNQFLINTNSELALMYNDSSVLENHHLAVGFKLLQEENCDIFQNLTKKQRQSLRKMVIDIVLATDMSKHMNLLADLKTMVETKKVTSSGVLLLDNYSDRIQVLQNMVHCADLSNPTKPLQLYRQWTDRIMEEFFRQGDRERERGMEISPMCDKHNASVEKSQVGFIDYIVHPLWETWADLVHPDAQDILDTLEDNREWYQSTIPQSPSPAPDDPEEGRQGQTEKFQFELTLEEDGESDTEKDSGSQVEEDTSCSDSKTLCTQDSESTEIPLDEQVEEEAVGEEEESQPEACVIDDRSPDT

PDE4 D2 inhibitory effect at 20 nM (PDE4D2)	PDE4 B1 inhibitory effect at 20 nM (PDE4B1)	PDE4 A1 inhibitory effect at 20 nM (PDE4A1A)	SMILES
+	+	+	CCOc1nc([C@@H](CS(C)(=O)=O)n2c(=O)n(C)c3cc(-c4ccccc4C(F)(F)F)ccc32)ccc1OC [Ex. 147, (S)-1-(1-(6-ethoxy-5-methoxypyridin-2-yl)-2-(methylsulfonyl)ethyl)-5-(2-(trifluoromethyl)phenyl)-3-methyl-1H-benzo[d]imidazol-2(3H)-one]
+	+	+	CCOc1nc([C@@H](CS(C)(=O)=O)n2c(=O)[nH]c3c(C)c(-c4ccccc4C(C)C)cnc32)ccc1OC [Ex. 11, (S)-3-(1-(6-ethoxy-5-methoxypyridin-2-yl)-2-(methylsulfonyl)ethyl)-6-(2-isopropylphenyl)-7-methyl-1H-imidazo[4,5-b]pyridin-2(3H)-one]
+	+	+	CCOc1nc([C@@H](CS(C)(=O)=O)n2c(=O)n(C3CC3)c3cc(-c4ccccc4F)ccc32)ccc1OC [Ex. 208, (S)-3-cyclopropyl-1-(1-(6-ethoxy-5-methoxypyridin-2-yl)-2-(methylsulfonyl)ethyl)-5-(2-fluorophenyl)-1H-benzo[d]imidazol-2(3H)-one]
+	+	+	CCOc1nc([C@@H](CS(C)(=O)=O)n2c(=O)n(C)c3cc(-c4ccccc4C)ccc32)ccc1OC [Ex. 140, (S)-1-(1-(6-ethoxy-5-methoxypyridin-2-yl)-2-(methylsulfonyl)ethyl)-5-(o-methylphenyl)-3-methyl-1H-benzo[d]imidazol-2(3H)-one]
+	+	+	CCOC(=O)c1ccc2c(c1)[nH]c(=O)n2[C@H](CS(C)(=O)=O)c1ccc(OC)c(OCC)n1 [Ex. 212, (S)-ethyl 1-(1-(6-ethoxy-5-methoxypyridin-2-yl)-2-(methylsulfonyl)ethyl)-2-oxo-2,3-dihydro-1H-benzo[d]imidazole-5-carboxylate]
+	+	+	CCOc1nc([C@@H](CS(C)(=O)=O)n2c(=O)n(C)c3cc(-c4ccc(C)cc4F)cnc32)ccc1OC [Ex. 116, (S)-6-(2-fluoro-4-methylphenyl)-3-(1-(6-ethoxy-5-methoxypyridin-2-yl)-2-(methylsulfonyl)ethyl)-1-methyl-1H-imidazo[4,5-b]pyridin-2(3H)-one]
+	+	+	CCOc1nc([C@@H](CS(C)(=O)=O)n2c(=O)[nH]c3cc(-c4cc(C)ccc4C)cnc32)ccc1OC [Ex. 101, (S)-6-(2,5-dimethylphenyl)-3-(1-(6-ethoxy-5-methoxypyridin-2-yl)-2-(methylsulfonyl)ethyl)-1H-imidazo[4,5-b]pyridin-2(3H)-one]
+	+	+	CCOc1nc([C@@H](CS(C)(=O)=O)n2c(=O)n(C)c3cc(-c4ccc(C)cc4C)ccc32)ccc1OC [Ex. 163, (S)-5-(2,4-dimethylphenyl)-1-(1-(6-ethoxy-5-methoxypyridin-2-yl)-2-(methylsulfonyl)ethyl)-3-methyl-1H-benzo[d]imidazol-2(3H)-one]
+	+	+	CCOc1nc([C@@H](CS(C)(=O)=O)n2c(=O)n(C)c3cc(-c4ccccc4F)cnc32)ccc1OC [Ex. 126, (S)-3-(1-(6-ethoxy-5-methoxypyridin-2-yl)-2-(methylsulfonyl)ethyl)-6-(2-fluorophenyl)-1-methyl-1H-imidazo[4,5-b]pyridin-2(3H)-one]
+	+	+	CCOc1nc([C@@H](CS(C)(=O)=O)n2c(=O)[nH]c3cc(-c4c(C)cccc4C)cnc32)ccc1OC [Ex. 105, (S)-6-(2,6-dimethylphenyl)-3-(1-(6-ethoxy-5-methoxypyridin-2-yl)-2-(methylsulfonyl)ethyl)-1H-imidazo[4,5-b]pyridin-2(3H)-one]
+	+	+	CCOc1nc([C@@H](CS(C)(=O)=O)n2c(=O)[nH]c3c(C)c(-c4c(F)cccc4OC)cnc32)ccc1OC [Ex. 46, (S)-6-(6-fluoro-2-methoxyphenyl)-3-(1-(6-ethoxy-5-methoxypyridin-2-yl)-2-(methylsulfonyl)ethyl)-7-methyl-1H-imidazo[4,5-b]pyridin-2(3H)-one]
+	+	+	CCOc1nc([C@@H](CS(C)(=O)=O)n2c(=O)[nH]c3cc(-c4cccc(C)c4F)ccc32)ccc1OC [Ex. 177, (S)-5-(2-fluoro-3-methylphenyl)-1-(1-(6-ethoxy-5-methoxypyridin-2-yl)-2-(methylsulfonyl)ethyl)-1H-benzo[d]imidazol-2(3H)-one]
+	+	+	CCOc1nc([C@@H](CS(C)(=O)=O)n2c(=O)[nH]c3cc(-c4ccccc4C(F)(F)F)ccc32)ccc1OC [Ex. 146, (S)-1-(1-(6-ethoxy-5-methoxypyridin-2-yl)-2-(methylsulfonyl)ethyl)-5-(2-(trifluoromethyl)phenyl)-1H-benzo[d]imidazol-2(3H)-one]
+	+	+	CCOc1nc([C@@H](CS(C)(=O)=O)n2c(=O)n(C)c3cc(-c4ccccc4OC)ccc32)ccc1OC [Ex. 144, (S)-1-(1-(6-ethoxy-5-methoxypyridin-2-yl)-2-(methylsulfonyl)ethyl)-5-(2-methoxyphenyl)-3-methyl-1H-benzo[d]imidazol-2(3H)-one]
+	+	+	CCOc1nc([C@@H](CS(C)(=O)=O)n2c(=O)n(CC(F)F)c3c(C)c(-c4ccc(F)cc4)cnc32)ccc1OC [Ex. 58, (S)-1-(2,2-difluoroethyl)-3-(1-(6-ethoxy-5-methoxypyridin-2-yl)-2-(methylsulfonyl)ethyl)-6-(4-fluorophenyl)-7-methyl-1H-imidazo[4,5-b]pyridin-2(3H)-one]
+	+	+	CCOc1nc([C@@H](CS(C)(=O)=O)n2c(=O)n(C)c3cc(-c4ccccc4)cnc32)ccc1OC [Ex. 77, (S)-3-(1-(6-ethoxy-5-methoxypyridin-2-yl)-2-(methylsulfonyl)ethyl)-6-phenyl-1-methyl-1H-imidazo[4,5-b]pyridin-2(3H)-one]
+	+	+	CCOc1nc([C@@H](CS(C)(=O)=O)N2C(=O)c3csc(NC(=O)CN4CCCC4)c3C2=O)ccc1OC [Ex. 231, (S)—N-(5-(1-(6-ethoxy-5-methoxypyridin-2-yl)-2-(methylsulfonyl)ethyl)-4,6-dioxo-5,6-dihydro-4H-thieno[3,4-c]pyrrol-1-yl)-2-(pyrrolidin-1-yl)acetamide]
+	+	+	CCOc1nc([C@@H](CS(C)(=O)=O)n2c(=O)n(CC(F)F)c3c(C)c(-c4ccc(F)cc4)cnc32)ccc1OC(C)C [Ex. 71, (S)-1-(2,2-difluoroethyl)-3-(1-(6-ethoxy-5-isopropoxypyridin-2-yl)-2-(methylsulfonyl)ethyl)-6-(4-fluorophenyl)-7-methyl-1H-imidazo[4,5-b]pyridin-2(3H)-one]
=	+	+	CCOc1nc([C@@H](CS(C)(=O)=O)n2c(=O)[nH]c3c(C)c(-c4ccc(F)cc4)cnc32)ccc1OC [Ex. 6, (S)-3-(1-(6-ethoxy-5-methoxypyridin-2-yl)-2-(methylsulfonyl)ethyl)-6-(4-fluorophenyl)-7-methyl-1H-imidazo[4,5-b]pyridin-2(3H)-one]
+	+	+	CCOc1nc([C@@H](CS(C)(=O)=O)n2c(=O)n(C)c3cc(-c4ccc(F)cc4OC)ccc32)ccc1OC [Ex. 189, (S)-5-(4-fluoro-2-methoxyphenyl)-1-(1-(6-ethoxy-5-methoxypyridin-2-yl)-2-(methylsulfonyl)ethyl)-3-methyl-1H-benzo[d]imidazol-2(3H)-one]
+	+	+	CCOc1nc([C@@H](CS(C)(=O)=O)n2c(=O)[nH]c3cc(-c4ccccc4C4CC4)cnc32)ccc1OC [Ex. 87, (S)-6-(2-cyclopropylphenyl)-3-(1-(6-ethoxy-5-methoxypyridin-2-yl)-2-(methylsulfonyl)ethyl)-1H-imidazo[4,5-b]pyridin-2(3H)-one]
